In patent US11685739B2, “High penetration drugs and their compositions thereof for treatment of Parkinson diseases” (TECHFIELDS PHARMA CO., LTD, priority 2013, dated 2023):
Where a name gives a salt, the structure may show the parent alone. Read-outs that look alike come from different tables or passages of the source.

How the values were obtained:
[1] = human, pH 7.4
[2] = tested on: motor function deficits induced by 6-OHDA in Parkinson's disease (PD) model; assay: Rotarod test in rats with 6-OHDA lesion, Parkinson's disease (PD) model; format: in vivo, Sprague-Dawley rats; details: for Efficacy in Rotarod test comparing to vehicle group and positive control group: four-week treatment; for Efficacy of low dose compared with moderate and high dose groups: 0.67 mg/kg transdermal (group 3) vs 2 mg and 6 mg/kg (groups 4 and 5)
[3] = Penetration rates through human skin in vitro, modified Franz cells; details: through human skin (360-400 μm), receiving fluid pH 7.4 phosphate buffer (0.2 M)
[4] = tested on: motor function deficits induced by 6-OHDA in Parkinson's disease (PD) model; assay: Rotarod test in rats with 6-OHDA lesion, Parkinson's disease (PD) model; format: in vivo, Sprague-Dawley rats; details: Example 31
Experimental: Test subjects (Sprague-Dawley rats) were prepared, grouped, and tested following the protocol below: • 1. 200 Sprague-Dawley rats (male, 200-230 g) underwent brain stereotaxic surgery after 1 week acclamation in animal facility; • 2. After anesthesia, a bur hole (1 mm in diameter) was made on skull on the left side with a motor drill based on the coordinates: AP +0.5 mm, ML −2.8 mm, DV 6.0 mm relative to Bregma; • 3. 6-OHDA (20 μg at 5 mg/mL) or sterile saline was injected into the left striatum with a microsyringe fitted with a 26-gauge steel cannula. The chemical caused the retrograde neurodegeneration in the distal substantia nigra and impairs dopamine transmission in the nigro-striatal pathway, which eventually led to functional disturbance of motor activities; • 4. Apomorphine and classic rotation test was carried out to screen animals at the end of week 3 post 6-OHDA treatment. Animals that matched lesion type and apomorphine-induced rotational scores were allotted to 11 groups; and • 5. Rats were divided into 11 groups (n=12), each group was applied with the drug(s) at the doses specified in Table 2:
• 6. Dose Formulations • (1) L-DOPA in water (3 mg/mL) was the positive control solution for group 1 (orally for group 1, transdermally for groups 2-11). The volume of administration was 2 mL/kg. Vehicle solution (negative control solution for group 2) was 30% ethanol (v/v). The volume of administration was 1286 μL/kg. Other test solutions (groups 3-11) were freshly prepared every day. • (2) Preparation method of test solutions for groups 3-5: 50.33 mg of Drug A was dissolved in 10 mL of 30% ethanol(v/v). This solution was the stock solution[(2)a]. • a. The test solution for group 5 (high dose group) of Drug A: The stock solution [(2)a] was the test solution for Group 5. The volume of administration was 1286 μL/kg. • b. The test solution for group 4 (moderate dose group) of Drug A: 3.00 mL of the stock solution [(2)a] was diluted to final volume 9.00 mL with 30% ethanol(v/v). This solution was the test solution for Group 4. The volume of administration was 1286 μL/kg. • c. […]

The cumulative amount of test compounds ([1]; 1 h) [mg]	The cumulative amount of test compounds ([1]; 2 h) [mg]	The cumulative amount of test compounds ([1]; 4 h) [mg]	The cumulative amount of test compounds ([1]; 8 h) [mg]	Compound	other results
–	–	–	–	C[C@@](Cc1ccc(O)c(O)c1)(NN)C(=O)O [carbidopa]	Effect on efficacy of L-Dopa and pro-drug of L-Dopa (Drug A) treated groups ([2]; Example 32, carbidopa 1.5 mg/kg orally, groups 1, 3, 4, 5, 6, 7, 9, 10, 4 weeks treatment): increased efficacy; Effect on efficacy of vehicle group and pro-drug of aspirin (Drug B) treated groups ([2]; Example 32, carbidopa 1.5 mg/kg orally, groups 2, 8 and 11, 4 weeks treatment): did not change the efficacy; Effect on efficacy of L-Dopa and pro-drug of L-Dopa treated groups ([2]; Example 34, carbidopa 1.5 mg/kg orally, groups 1, 3, 4, 5, 6, 7, 9, 10 (L-DOPA, Drug C), 4 weeks treatment): increased efficacy; Effect on efficacy of vehicle group and pro-drug of ibuprofen treated groups ([2]; Example 34, carbidopa 1.5 mg/kg orally, groups 2, 8 and 11 (Drug D), 4 weeks treatment): did not change the efficacy
–	–	–	–	CC(=O)O.CCN(CC)CCOC(=O)C(C)c1ccc(CC(C)C)cc1 (centres unmarked) [Drug D, 2-(diethylamino)ethyl 2-(4-isobutylphenyl)propionate acetic acid salt]	Efficacy in Rotarod test comparing to vehicle group and positive control group ([2]; Example 33, 15 mg and 45 mg/kg transdermal): good efficacy
–	–	–	–	Cl.NCCc1ccc(OC(=O)c2ccccc2)c(OC(=O)c2ccccc2)c1 [Compound-10, 4-(2-aminoethyl)-1,2-phenylene dibenzoate hydrochloride]	The cumulative amount of test compounds ([3]; 1 h): 0.68 mg; The cumulative amount of test compounds ([3]; 2 h): 1.35 mg; The cumulative amount of test compounds ([3]; 4 h): 2.74 mg; The cumulative amount of test compounds ([3]; 8 h): 5.55 mg
0.58	1.15	2.33	4.71	CC(C)OC(=O)[C@@H](N)Cc1ccc(OC(=O)c2ccccc2)c(OC(=O)c2ccccc2)c1.Cl [Compound-11, (S)-4-(2-amino-3-isopropoxy-3-oxopropyl)-1,2-phenylene dibenzoate hydrochloride]	Side effects (dyskinesia at peak dose, end-of-dose deterioration of function etc.) ([4]; L-DOPA orally, pro-drug transdermally): avoided dyskinesia at peak dose, and end-of-dose deterioration of function; Efficacy of low dose compared with moderate and high dose groups ([2]; Example 31): much higher than that of the moderate and high dose groups
0.55	1.08	2.23	4.41	Br.CCC(CC)OC(=O)[C@@H](N)Cc1ccc(OC(=O)C(C)C)c(OC(=O)C(C)C)c1 [Compound-15, (S)-4-(2-amino-3-oxo-3-(pentan-3-yloxy)propyl)-1,2-phenylene bis(2-methylpropanoate) hydrobromide]	Efficacy of low dose compared with moderate and high dose groups ([2]; Example 33): much higher than that of the moderate and high dose groups; Side effects (dyskinesia at peak dose, end-of-dose deterioration of function etc.) ([2]; Example 33, L-DOPA orally, pro-drug transdermally): avoided dyskinesia at peak dose, and end-of-dose deterioration of function
–	–	–	–	Cl.NCCc1ccc(O)c(O)c1 [Compound-30, 4-(2-aminoethyl)benzene-1,2-diol hydrochloride]	The cumulative amount of test compounds ([3]; 1 h): 0.12 mg; The cumulative amount of test compounds ([3]; 2 h): 0.25 mg; The cumulative amount of test compounds ([3]; 4 h): 0.52 mg; The cumulative amount of test compounds ([3]; 8 h): 1.05 mg
–	–	–	–	CC(C)Cc1ccc(C(C)C(=O)O)cc1 (centres unmarked) [Compound-33, 2-(ρ-isobutylphenyl)propionic acid]	The cumulative amount of test compounds ([3]; 1 h): 0.001 mg; The cumulative amount of test compounds ([3]; 2 h): 0.001 mg; The cumulative amount of test compounds ([3]; 4 h): 0.002 mg; The cumulative amount of test compounds ([3]; 8 h): 0.003 mg
0.53	1.07	2.13	4.29	CCCC(CCC)OC(=O)[C@@H](N)Cc1ccc(OC(=O)c2ccccc2)c(OC(=O)c2ccccc2)c1.Cl [Compound-12, (S)-4-(2-amino-3-(heptan-4-yloxy)-3-oxopropyl)-1,2-phenylene dibenzoate hydrochloride]	Efficacy of low dose compared with moderate and high dose groups ([2]; Example 36): much higher than that of the moderate and high dose groups
–	–	–	–	CC(C(=O)OCCCCN(C)C)c1cccc(Oc2ccccc2)c1.Cl (centres unmarked) [Drug F, 4-(dimethylamino)butyl 2-(3-phenoxyphenyl) Propionate Hydrochloride]	Efficacy in Rotarod test comparing to vehicle group and positive control group ([2]; Example 35, 20 mg and 60 mg/kg transdermal): good efficacy
0.52	1.05	2.10	4.23	CCCCC(=O)Oc1ccc(C[C@H](N)C(=O)OC(C)C)cc1OC(=O)CCCC.Cl [Compound-13, (S)-4-(2-amino-3-isopropoxy-3-oxopropyl)-1,2-phenylene dipentanoate hydrochloride]	–

Compound	The cumulative amount of test compounds ([1]; 1 h) [mg]	The cumulative amount of test compounds ([1]; 2 h) [mg]	The cumulative amount of test compounds ([1]; 4 h) [mg]	The cumulative amount of test compounds ([1]; 8 h) [mg]	other results
CCCN(CCC)CCOC(=O)c1cc(-c2ccc(F)cc2F)ccc1OC(C)=O.Cl [Compound-27, 2-(dipropylamino)ethyl 4-acetoxy-2′,4′-difluoro-[1,1′-biphenyl]-3-carboxylate hydrochloride]	1.01	2.03	4.11	8.25	Efficacy in Rotarod test comparing to vehicle group and positive control group ([2]; Example 36, 15 mg and 45 mg/kg transdermal): good efficacy
CCN(CC)CCOC(=O)c1ccccc1OC(C)=O.Cl [Compound-29, 2-(diethylamino)ethyl 2-acetoxybenzoate hydrochloride]	1.08	2.13	4.27	8.48	Efficacy in Rotarod test comparing to vehicle group and positive control group ([4]; 30 mg and 90 mg/kg transdermal, three-week treatment): good efficacy
CNCC(=O)Oc1cc(C[C@H](NC(=O)OC(C)OC(=O)C(C)C)C(=O)OC(C)C)ccc1OC(=O)c1ccccc1 (stereo partly drawn) [Compound-21(b), 4-((2S)-2-(((1-(isobutyryloxy)ethoxy)carbonyl)amino-3-isopropoxy-3-oxopropyl)-2-(2-(methylamino)acetoxy)phenyl benzoate hydrochloride]	0.51	1.05	2.08	4.19	–
